Measured values from patent US20260102383A1, “LPAR1 Inhibitors” (AbbVie Inc., priority 2024, published 2026).

The compounds below were run against T1, human LPAR1 (Homo sapiens, UniProt Q92633) (assay: Arrestin assay (Arrestin Reporter EDG2-bla U2OS), inhibition of LPA-stimulated signal). Conditions: TangoEDG2-bla U2OS cells expressing human LPAR1; 0.25 μM LPA; read-out: Arrestin Reporter EDG2-bla U2OS Human IC50.
T1 construct: host or cells: TangoEDG2-bla U2OS cells
Assay type: cell-based
Method in brief: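 TangoEDG2-bla U2OS cells (1×10^4/well, plated 18-20 h) were preincubated 1 h at 37 °C with compound (12-point, 3-fold, 10 μM to 0.00006 μM), then stimulated 3 h with 0.25 μM LPA final. LiveBLAzer FRET B/G 460/530 nm emission ratio gave % inhibition; IC50 from 4-parameter variable-slope fit.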

T1 sequence (Q92633 whole entry): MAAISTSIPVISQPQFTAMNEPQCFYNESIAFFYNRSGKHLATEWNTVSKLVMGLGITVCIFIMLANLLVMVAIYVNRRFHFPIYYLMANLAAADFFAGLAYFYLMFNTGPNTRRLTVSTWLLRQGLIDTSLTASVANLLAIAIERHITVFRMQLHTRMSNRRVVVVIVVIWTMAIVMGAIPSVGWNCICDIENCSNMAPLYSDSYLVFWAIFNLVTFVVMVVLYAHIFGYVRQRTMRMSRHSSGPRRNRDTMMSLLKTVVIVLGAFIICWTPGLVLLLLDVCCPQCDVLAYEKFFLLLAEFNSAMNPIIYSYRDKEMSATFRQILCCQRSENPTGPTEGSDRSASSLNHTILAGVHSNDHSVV

| Compound | IC50 |
| --- | --- |
| CC(C)c1ccnn1C1(C(=O)Nc2ccc(Cl)cc2OC(F)F)CCN([C@H]2C[C@H](C(=O)O)C2)CC1 [Compound 62, (1r,3r)-3-[4-[[4-chloro-2-(difluoromethoxy)phenyl]carbamoyl]-4-(5-isopropylpyrazol-1-yl)-1-piperidyl]cyclobutanecarboxylic acid] | 0.0515 µM |
| CC(C)c1ccnn1C1(C(=O)Nc2ccc(Cl)cc2OC(F)F)CCN([C@H]2C[C@@](C)(C(=O)O)C2)CC1 [Compound 77, (1s,38)-3-[4-[[4-chloro-2-(difluoromethoxy)phenyl]carbamoyl]-4-(5-isopropylpyrazol-1-yl)-1-piperidyl]-1-methyl-cyclobutanecarboxylic acid] | 0.0436 µM |

Same assay, conditions: TangoEDG2-bla U2OS cells expressing human LPAR1; 0.25 μM LPA; read-out: Arrestin Reporter EDG2-bla U2OS Human Merged IC50

| IC50 | Compound |
| --- | --- |
| 0.0135 µM | CC(C)c1ccnn1C1(C(=O)Nc2ccc(Cl)cc2OC(F)F)CCN(CC2(C(=O)O)CCN(C(=O)CC34CC(C3)C4)CC2)CC1 [Compound 53, 1-[2-(1-bicyclo[1.1.1]pentanyl)acetyl]-4-[[4-[[4-chloro-2-(difluoromethoxy)phenyl]carbamoyl]-4-(5-isopropylpyrazol-1-yl)-1-piperidyl]methyl]piperidine-4-carboxylic acid] |
| 0.0565 µM | COCCC(=O)N1CCC(CN2CCC(C(=O)Nc3ccc(Cl)cc3OC(F)F)(n3nccc3C(C)C)CC2)(C(=O)O)CC1 [Compound 54, 4-[[4-[[4-chloro-2-(difluoromethoxy)phenyl]carbamoyl]-4-(5-isopropylpyrazol-1-yl)-1-piperidyl]methyl]-1-(3-methoxypropanoyl) piperidine-4-carboxylic acid] |
| 0.00673 µM | CCOC(=O)N1CC[C@](CN2CCC(C(=O)Nc3ccc(Cl)cc3OC(F)F)(n3nccc3C(C)C)CC2)(C(=O)O)C1 [Compound 56, (3R)-3-[[4-[[4-chloro-2-(difluoromethoxy)phenyl]carbamoyl]-4-(5-isopropylpyrazol-1-yl)-1-piperidyl]methyl]-1-ethoxycarbonyl-pyrrolidine-3-carboxylic acid] |
| 0.00683 µM | CC(C)c1ccnn1C1(C(=O)Nc2ccc(Cl)cc2OC(F)F)CCN(CC2(C(=O)O)CCN(C(=O)C34CC(C(C)C)(C3)C4)CC2)CC1 [Compound 57, 4-[[4-[[4-chloro-2-(difluoromethoxy)phenyl]carbamoyl]-4-(5-isopropylpyrazol-1-yl)-1-piperidyl]methyl]-1-(3-isopropylbicyclo[1.1.1]pentane-1-carbonyl)piperidine-4-carboxylic acid] |
| 0.0756 µM | COC1(C(=O)N2CCC(CN3CCC(C(=O)Nc4ccc(Cl)cc4OC(F)F)(n4nccc4C(C)C)CC3)(C(=O)O)CC2)CC1 [Compound 58, 4-[[4-[[4-chloro-2-(difluoromethoxy)phenyl]carbamoyl]-4-(5-isopropylpyrazol-1-yl)-1-piperidyl]methyl]-1-(1-methoxycyclopropanecarbonyl) piperidine-4-carboxylic acid] |
| 0.0264 µM | COCC1(C(=O)N2CCC(CN3CCC(C(=O)Nc4ccc(Cl)cc4OC(F)F)(n4nccc4C(C)C)CC3)(C(=O)O)CC2)CCC1 [Compound 59, 4-[[4-[[4-chloro-2-(difluoromethoxy)phenyl]carbamoyl]-4-(5-isopropylpyrazol-1-yl)-1-piperidyl]methyl]-1-[1-(methoxymethyl)cyclobutanecarbonyl] piperidine-4-carboxylic acid] |
| 0.0045 µM | CC(C)c1ccnn1C1(C(=O)Nc2ccc(Cl)cc2OC(F)F)CCN(CC2(C(=O)O)Cc3ccccc3C2)CC1 [Compound 63, 2-[[4-[[4-chloro-2-(difluoromethoxy)phenyl]carbamoyl]-4-(5-isopropylpyrazol-1-yl)-1-piperidyl]methyl]indane-2-carboxylic acid] |
| 0.0228 µM | CC(C)c1c(F)cnn1C1(C(=O)Nc2ccc(Cl)cc2OC(F)F)CCN(CC2(C(=O)O)CCOCC2)CC1 [Compound 66, 4-[[4-[[4-chloro-2-(difluoromethoxy)phenyl]carbamoyl]-4-(4-fluoro-5-isopropyl-pyrazol-1-yl)-1-piperidyl]methyl]tetrahydropyran-4-carboxylic acid] |
| 0.0656 µM | COC12CC(C(=O)N3CCC(CN4CCC(C(=O)Nc5ccc(Cl)cc5OC(F)F)(n5nccc5C(C)C)CC4)(C(=O)O)CC3)(C1)C2 [Compound 68, 4-[[4-[[4-chloro-2-(difluoromethoxy)phenyl]carbamoyl]-4-(5-isopropylpyrazol-1-yl)-1-piperidyl]methyl]-1-(3-methoxybicyclo[1.1.1]pentane-1-carbonyl)piperidine-4-carboxylic acid] |
| 0.105 µM | CC(C)c1ccnn1C1(C(=O)Nc2ccc(Cl)cc2OC(F)F)CCN(CC2(C(=O)O)CCN(C(=O)C3CCOCC3)CC2)CC1 [Compound 71, 4-[[4-[[4-chloro-2-(difluoromethoxy)phenyl]carbamoyl]-4-(5-isopropylpyrazol-1-yl)-1-piperidyl]methyl]-1-(tetrahydropyran-4-carbonyl)piperidine-4-carboxylic acid] |
| 0.0188 µM | CC(C)c1ccnn1C1(C(=O)Nc2ccc(Cl)cc2OC(F)F)CCN(CC2(C(=O)O)CCN(C(=O)C34CC(F)(C3)C4)CC2)CC1 [Compound 72, 4-[[4-[[4-chloro-2-(difluoromethoxy)phenyl]carbamoyl]-4-(5-isopropylpyrazol-1-yl)-1-piperidyl]methyl]-1-(3-fluorobicyclo[1.1.1]pentane-1-carbonyl)piperidine-4-carboxylic acid] |
| 0.0372 µM | CC(C)c1ccnn1C1(C(=O)Nc2ccc(Cl)cc2OC(F)F)CCN(CC2(C(=O)O)CC23CCOCC3)CC1 (centres unmarked) [Compound 73, 2-[[4-[[4-chloro-2-(difluoromethoxy)phenyl]carbamoyl]-4-(5-isopropylpyrazol-1-yl)-1-piperidyl]methyl]-6-oxaspiro[2.5]octane-2-carboxylic acid] |
| 0.0327 µM | CC(C)C(=O)N1CCC(CN2CCC(C(=O)Nc3ccc(Cl)cc3OC(F)F)(n3nccc3C(C)C)CC2)(C(=O)O)CC1 [Compound 75, 4-[[4-[[4-chloro-2-(difluoromethoxy)phenyl]carbamoyl]-4-(5-isopropylpyrazol-1-yl)-1-piperidyl]methyl]-1-(2-methylpropanoyl)piperidine-4-carboxylic acid] |
| 0.0655 µM | CC(C)c1ccnn1C1(C(=O)Nc2ccc(Cl)cc2OC(F)F)CCN(CC2(C(=O)O)CC2)CC1 [Compound 76, 1-[[4-[[4-chloro-2-(difluoromethoxy)phenyl]carbamoyl]-4-(5-isopropylpyrazol-1-yl)-1-piperidyl]methyl]cyclopropanecarboxylic acid] |

Second part, the compound before the results:

| Compound | IC50 |
| --- | --- |
| CC(C)c1ccnn1C1(C(=O)Nc2ccc(Cl)cc2OC(F)F)CCN(CC2(CC(=O)O)CCOCC2)CC1 [Compound 51, 2-[4-[[4-[[4-chloro-2-(difluoromethoxy)phenyl]carbamoyl]-4-(5-isopropylpyrazol-1-yl)-1-piperidyl]methyl]tetrahydropyran-4-yl]acetic acid] | 0.0566 µM |
| CC(C)c1ccnn1C1(C(=O)Nc2ccc(Cl)cc2OC(F)F)CCN(CC(C)(C(=O)O)C2CCOCC2)CC1 (centres unmarked) [Compound 52, 3-[4-[[4-chloro-2-(difluoromethoxy)phenyl]carbamoyl]-4-(5-isopropylpyrazol-1-yl)-1-piperidyl]-2-methyl-2-tetrahydropyran-4-yl-propanoic acid] | 0.0705 µM |
| CCOC(=O)N1CC[C@@](CN2CCC(C(=O)Nc3ccc(Cl)cc3OC(F)F)(n3nccc3C(C)C)CC2)(C(=O)O)C1 [Compound 55, (3S)-3-[[4-[[4-chloro-2-(difluoromethoxy)phenyl]carbamoyl]-4-(5-isopropylpyrazol-1-yl)-1-piperidyl]methyl]-1-ethoxycarbonyl-pyrrolidine-3-carboxylic acid] | 0.00457 µM |
| COCC(OC)C(=O)N1CCC(CN2CCC(C(=O)Nc3ccc(Cl)cc3OC(F)F)(n3nccc3C(C)C)CC2)(C(=O)O)CC1 (centres unmarked) [Compound 60, 4-[[4-[[4-chloro-2-(difluoromethoxy)phenyl]carbamoyl]-4-(5-isopropylpyrazol-1-yl)-1-piperidyl]methyl]-1-(2,3-dimethoxypropanoyl) piperidine-4-carboxylic acid] | 0.0912 µM |
| CCC(=O)N1CC(CN2CCC(C(=O)Nc3ccc(Cl)cc3OC(F)F)(n3nccc3C(C)C)CC2)(C(=O)O)C1 [Compound 64, 3-[[4-[[4-chloro-2-(difluoromethoxy)phenyl]carbamoyl]-4-(5-isopropylpyrazol-1-yl)-1-piperidyl]methyl]-1-propanoyl-azetidine-3-carboxylic acid] | 0.0515 µM |
| CC(C)c1ccnn1C1(C(=O)Nc2ccc(Cl)cc2OC(F)F)CCN(CC2(C(=O)O)CCS(=O)(=O)CC2)CC1 [Compound 65, 4-[[4-[[4-chloro-2-(difluoromethoxy)phenyl]carbamoyl]-4-(5-isopropylpyrazol-1-yl)-1-piperidyl]methyl]-1,1-dioxo-thiane-4-carboxylic acid] | 0.00987 µM |
| CCC(CC)(CN1CCC(C(=O)Nc2ccc(Cl)cc2OC(F)F)(n2nccc2C(C)C)CC1)C(=O)O [Compound 67] | 0.0209 µM |
| CC(C)c1ccnn1C1(C(=O)Nc2ccc(Cl)cc2OC(F)F)CCN(CC2(C(=O)O)CCN(C(=O)C34CC(C3)C4)CC2)CC1 [Compound 69, 1-(bicyclo[1.1.1]pentane-1-carbonyl)-4-[[4-[[4-chloro-2-(difluoromethoxy)phenyl]carbamoyl]-4-(5-isopropylpyrazol-1-yl)-1-piperidyl]methyl]piperidine-4-carboxylic acid] | 0.0148 µM |
| CC(C)c1ccnn1C1(C(=O)Nc2ccc(Cl)cc2OC(F)F)CCN(CC2(C(=O)O)CC3CCC2C3)CC1 (centres unmarked) [Compound 70, 2-[[4-[[4-chloro-2-(difluoromethoxy)phenyl]carbamoyl]-4-(5-isopropylpyrazol-1-yl)-1-piperidyl]methyl]norbomane-2-carboxylic acid] | 0.0114 µM |
| CC(C)c1ccnn1C1(C(=O)Nc2ccc(Cl)cc2OC(F)F)CCN(CC2(C(=O)O)CC=CC2)CC1 [Compound 74, 1-[[4-[[4-chloro-2-(difluoromethoxy)phenyl]carbamoyl]-4-(5-isopropylpyrazol-1-yl)-1-piperidyl]methyl]cyclopent-3-ene-1-carboxylic acid] | 0.0108 µM |
